Test results from patent US20240408088A1, “PYRAZOLE DERIVATIVE, AND PREPARATION METHOD THEREFOR AND USE THEREOF IN MEDICINE” (Abbisko Therapeutics Co., Ltd., priority 2021, published 2024).
pIC50: −log10 of the molar value.

Key:
[1] = test system: HCT 116 MTAP knockout cells; experiment: Human colon cancer HCT116 cell proliferation inhibition test (MTAP knockout cells, CellTiter-Glo, 6 days); type: cell-based; details: Homo sapiens, HCT-116, 144 h
Protocol: (§1) • 1. HCT 116 MTAP knockout and MTAP wild-type cells were plated in 96-well flat bottom 5 plates, and cultured overnight with McCoy's 5A medium containing […]+1% penicillin-streptomycin at 37° C. and 5% CO2. • 2. On the next day, the compound was dissolved with DMSO, diluted with DMSO and medium successively and transferred to the cell plate. The final concentration of the compound was 10 μM, the compound was diluted 4 times, with 9 concentration gradients, and DMSO control was added. • 3. Cells that have not been treated with the compound were removed. CellTiter-Glo Luminescent Cell Viability Assay (Promega) was used to detect cell viability, the operation was performed with reference to the package insert of the kit, and then the cell plate was placed on EnVision Multilabel Reader to detect the cold light signal. • 4. Meanwhile, the cell plate treated with the compound was cultured at 37° C. and 5% CO2 for 6 consecutive days. • 5. Then, CellTiter-Glo was also used to detect cell viability. • 6. Finally, the four-parameter dose-response curve module of GraphPad Prism v 9.2.0 software was used to plot the dose-response curve and calculate the IC50 for proliferation inhibition (unit: nM).

[2] = test system: HCT 116 MTAP wild-type cells; experiment: Human colon cancer HCT116 cell proliferation inhibition test (MTAP wild-type cells, CellTiter-Glo, 6 days); type: cell-based; details: HCT-116, 144 h
Protocol: as §1

[3] = Liver microsomal stability experiment; type: in vitro ADME; details: pH 7.4; human liver microsomes, NADPH, 37° C., 0-45 min; read-out: Human Liver Microsome Stability Half-Life T1/2
Protocol: Buffer solution A: 1.0 L of 0.1 M potassium dihydrogen phosphate buffer solution (containing 1.0 mM EDTA);
Buffer solution B: 1.0 L of 0.1 M dipotassium phosphate buffer solution (containing 1.0 mM EDTA);
Buffer solution C: Buffer solution A was added to 700 mL of buffer solution B. The addition was stopped when pH reached 7.4.
The selected compounds of the examples and reference standards were dissolved in DMSO to prepare a stock solution of 10 mM.
• 500 μM solution: 10 μL of 10 mM stock solution was added to 190 μL of ACN; • 1.5 μM dosing solution (dissolved in liver microsome solution, human liver microsomes were purchased from Xenotech): 18.75 μL of 20 mg/mL liver microsomes was added to 479.75 μL of buffer solution C, then 1.5 μL of 500 μM solution was added and mixed well with gentle shaking.
NADPH was weighted, then an appropriate amount of buffer solution C was added to prepare a 6 mM of NADPH solution.
• 1. 30 μL of 1.5 μM dosing solution was added to the wells set to different time points (0 min, 5 min, 15 min, 30 min and 45 min) on a 96-well plate. 2 replicates were made. • 2. Preparation of the 0-min sample: 135 μL of ACN (containing internal standard) was first added to the 0-min well, and 15 μL of 6 mM NADPH solution was added. • 3. A 96-well plate containing 1.5 μM of dosing solution and NADPH solution were pre-warmed in a 37° C. water bath for 5 minutes. • 4. Pre-warmed 15 μL of 6 mM NADPH solution was added to the wells set to 5 min, 15 min, 30 min and 45 min, the reaction was started and the timing was started. • 5. […] The solution was vortexed for 10 minutes, and the sample was centrifuged on a centrifuge at 5594×g for 15 minutes. • 6. 50 μL of supernatant was taken from the centrifuged sample, transferred to a 96-well sample plate that has been added with 50 μL of water, mixed, and finally sent to LC-MS/MS for analysis. The half-life was calculated based on the test results.

[4] = Pharmacokinetic assay in mice, single oral administration; type: in vivo; details: male, mouse, ICR mice, 10 mg/kg, plasma
Protocol: The purpose of this trial is to study the pharmacokinetic behavior of some compounds of the present invention, and the administration method is: Single oral administration (PO) to ICR mice:
ICR mice male N=3 original source: Shanghai Sippr-Bk Lab Animal Co., Ltd.
The compounds were weighed and dissolved in 20% PG+10% Solutol HS15+70% pH 3 citrate buffer, respectively, shaken well and sonicated to prepare colorless clear solutions or suspensions. Nine mice were administered orally at a dose of 10 mg/kg after an overnight fast.
About 90 μL of blood was collected via the submandibular vein per time point, heparin sodium anticoagulant was added, the sample was placed on ice after collection, and plasma was centrifuged within 1 hour (centrifugation conditions: 8,000 rpm, 6 minutes, 2-8° C.). The blood collection time points were 0, 0.25, 0.5, 1, 2, 4, 6, 8 and 24 h. The samples were stored in a refrigerator at −20° C.
The plasma sample was 40 μL, 160 μL of ice-cold acetonitrile containing internal standard was added, vortexed for 3 minutes, and centrifuged at 11,000 rpm for 5 minutes. 100 μL of the supernatant was taken and added to 100 μL of water, 5 μL of the sample was taken and injected into LC/MS/MS for analysis (see the table below for the results).
PK Results for Single Oral Administration (PO) of 10 mg/kg of Compounds to Mice

| SMILES | pIC50 [1] | pIC50 [2] | half-life at 1 µM [3] [h] | AUC(0-t) [4] [ng·h/mL] | Cmax [4] [ng/mL] | half-life [4] [h] |
| --- | --- | --- | --- | --- | --- | --- |
| Cn1ncc(-c2cc(C3CC3)c3c(=O)[nH]nc(CN)c3c2)c1-c1c(F)cc2ccccc2c1C#N [Example 3, 2-(4-(4-(aminomethyl)-8-cyclopropyl-1-oxo-1,2-dihydrophthalazin-6-yl)-1-methyl-1H-pyrazol-5-yl)-3-fluoro-1-naphthalenenitrile] | 7.54 | 5.98 | – | – | – | – |
| Cn1ncc(-c2cc(C#N)c3c(=O)[nH]nc(CN)c3c2)c1-c1c(F)c(Cl)cc(OC2CC2)c1C#N [Example 6, 1-(aminomethyl)-7-(5-(3-chloro-6-cyano-5-cyclopropoxy-2-fluorophenyl)-1-methyl-1H-pyrazol-4-yl)-4-oxo-3,4-dihydrophthalazine-5-carbonitrile] | 7.15 | – | 2.05 | 2900 | 973 | 5.1 |
| Cn1ncc(-c2cc(C3CC3)c3c(=O)[nH]nc(CN)c3c2)c1-c1c(F)c(Cl)cc(OC2CC2)c1C#N [Example 8, 2-(4-(4-(aminomethyl)-8-cyclopropyl-1-oxo-1,2-dihydrophthalazin-6-yl)-1-methyl-1H-pyrazol-5-yl)-4-chloro-6-cyclopropoxy-3-fluorobenzonitrile] | 7.74 | – | 0.867 | 2710 | 576 | 3.2 |
| C#Cc1cc(-c2cnn(C)c2-c2c(F)cc3ccccc3c2C#N)cc2c(CN)n[nH]c(=O)c12 [Example 2, 2-(4-(4-(aminomethyl)-8-ethynyl-1-oxo-1,2-dihydrophthalazin-6-yl)-1-methyl-1H-pyrazol-5-yl)-3-fluoro-1-naphthalenenitrile] | 8.05 | – | 0.717 | 1440 | 378 | 4 |
| Cn1ncc(-c2ccc3c(=O)[nH]nc(CN)c3c2)c1-c1c(F)c(Cl)cc(N2CC(F)(F)C2)c1C#N [Example 14, 2-(4-(4-(aminomethyl)-1-oxo-1,2-dihydrophthalazin-6-yl)-1-methyl-1H-pyrazol-5-yl)-4-chloro-6-(3,3-difluoroazetidin-1-yl)-3-fluorobenzonitrile] | 7.85 | 5.63 | – | – | – | – |
| Cn1ncc(-c2ccc3c(=O)[nH]nc(CN)c3c2)c1-c1c(F)c(Cl)cc(N2CC(C)(F)C2)c1C#N [Example 18, 2-(4-(4-(aminomethyl)-1-oxo-1,2-dihydrophthalazin-6-yl)-1-methyl-1H-pyrazol-5-yl)-4-chloro-3-fluoro-6-(3-fluoro-3-methylazetidin-1-yl)benzonitrile] | 6.91 | 5.25 | – | – | – | – |
| Cn1ncc(-c2cc(C#N)c3c(=O)[nH]nc(CN)c3c2)c1-c1c(F)c(Cl)cc(N2CCCC2)c1C#N [Example 9, 1-(aminomethyl)-7-(5-(3-chloro-6-cyano-2-fluoro-5-(pyrrolidin-1-yl)phenyl)-1-methyl-1H-pyrazol-4-yl)-4-oxo-3,4-dihydrophthalazine-5-carbonitrile] | 7.24 | – | 0.633 | 2230 | 844 | 6.9 |
| Cn1ncc(-c2cc(C3CC3)c3c(=O)[nH]nc(CN)c3c2)c1-c1c(F)c(Cl)cc(N2CCCC2)c1C#N [Example 11, 2-(4-(4-(aminomethyl)-8-cyclopropyl-1-oxo-1,2-dihydrophthalazin-6-yl)-1-methyl-1H-pyrazol-5-yl)-4-chloro-3-fluoro-6-(pyrrolidin-1-yl)benzonitrile] | 6.74 | – | – | – | – | – |
| Cn1ncc(-c2ccc3c(=O)[nH]nc(CN)c3c2)c1-c1c(F)c(N2CCCC2)cc(OC2CC2)c1C#N [Example 16, 2-(4-(4-(aminomethyl)-1-oxo-1,2-dihydrophthalazin-6-yl)-1-methyl-1H-pyrazol-5-yl)-6-cyclopropoxy-3-fluoro-4-(pyrrolidin-1-yl)benzonitrile] | 7.68 | 5.59 | – | – | – | – |

The next lines start with the values.

| pIC50 [1] | pIC50 [2] | half-life at 1 µM [3] [h] | AUC(0-t) [4] [ng·h/mL] | Cmax [4] [ng/mL] | half-life [4] [h] | SMILES |
| --- | --- | --- | --- | --- | --- | --- |
| 7.36 | 5.57 | – | – | – | – | Cn1ncc(-c2ccc3c(=O)[nH]nc(CN)c3c2)c1-c1c(F)c(Cl)cc(N2CC(C(F)F)C2)c1C#N [Example 30, 2-(4-(4-(aminomethyl)-1-oxo-1,2-dihydrophthalazin-6-yl)-1-methyl-1H-pyrazol-5-yl)-4-chloro-6-(3-(difluoromethyl)azetidin-1-yl)-3-fluorobenzonitrile] |
| 7.28 | 5.79 | 0.333 | 973 | 266 | 1.3 | Cn1ncc(-c2ccc3c(=O)[nH]nc(CN)c3c2)c1-c1c(F)c(Cl)cc(OC2CC2)c1C#N [MRTX-1979, reference compound] |
| 7.77 | 6.12 | 0.45 | 2980 | 810 | 5 | Cn1ncc(-c2ccc3c(=O)[nH]nc(CN)c3c2)c1-c1c(F)c(Cl)cc(N2CCCC2)c1C#N [Example 28, 2-(4-(4-(aminomethyl)-1-oxo-1,2-dihydrophthalazin-6-yl)-1-methyl-1H-pyrazol-5-yl)-4-chloro-3-fluoro-6-(pyrrolidin-1-yl)benzonitrile] |
| 7.47 | 5.60 | – | – | – | – | COC1CCN(c2cc(OC3CC3)c(C#N)c(-c3c(-c4ccc5c(=O)[nH]nc(CN)c5c4)cnn3C)c2F)C1 (stereo not drawn) [Example 26, 2-(4-(4-(aminomethyl)-1-oxo-1,2-dihydrophthalazin-6-yl)-1-methyl-1H-pyrazol-5-yl)-6-cyclopropoxy-3-fluoro-4-(3-methoxypyrrolidin-1-yl)benzonitrile] |
| 7.10 | 5.49 | – | – | – | – | Cn1ncc(-c2ccc3c(=O)[nH]nc(CN)c3c2)c1-c1c(F)c(Cl)cc(N2CCC(F)(F)C2)c1C#N [Example 19, 2-(4-(4-(aminomethyl)-1-oxo-1,2-dihydrophthalazin-6-yl)-1-methyl-1H-pyrazol-5-yl)-4-chloro-6-(3,3-difluoropyrrolidin-1-yl)-3-fluorobenzonitrile] |
| 7.70 | 5.94 | – | – | – | – | Cn1ncc(-c2ccc3c(=O)[nH]nc(CN)c3c2)c1-c1c(F)c(Cl)cc(N2CC3(C2)CC3(F)F)c1C#N [Example 29, 2-(4-(4-(aminomethyl)-1-oxo-1,2-dihydrophthalazin-6-yl)-1-methyl-1H-pyrazol-5-yl)-4-chloro-6-(1,1-difluoro-5-azaspiro[2.3]hexan-5-yl)-3-fluorobenzonitrile] |
| 6.92 | 5.44 | – | – | – | – | COC1CN(c2cc(OC3CC3)c(C#N)c(-c3c(-c4ccc5c(=O)[nH]nc(CN)c5c4)cnn3C)c2F)C1 [Example 23, 2-(4-(4-(aminomethyl)-1-oxo-1,2-dihydrophthalazin-6-yl)-1-methyl-1H-pyrazol-5-yl)-6-cyclopropoxy-3-fluoro-4-(3-methoxyazetidin-1-yl)benzonitrile] |
